According to US12486241B2, “Cystine diamide analogs for cystinuria” (Rutgers, The State University of New Jersey, priority 2019, dated 2025):
Where a name gives a salt, the structure may show the parent alone.

Experiments:
[1] = L-cystine crystallization inhibition assay (metastable supersaturated L-cystine solution; L-cystine concentration by fluorescence or cyanide-nitroprusside colorimetric assay); details: for Ratio (improvement in potency over the control): footnote names L-cystine dimethylester (CDME) as control, LH708 = 1.00; for EC50: test compound in L-cystine supersaturated solution (~3 mM), 25° C. for 72 h, read-out: EC50 (Aqueous Solubility of L-Cystine)
Procedure: Example 21 Preparation of the Metastable Supersaturated Solution of L-Cystine and the Cystallizaiton Inhibition Assay
For the preparation of L-cystine supersaturated solution 70 mg of L-cystine was dissolved in 100 mL of Millipore water (˜3 mM) under reflux at 120° C. for 30 min until the L-cystine was completely dissolved. The supersaturated solution was then allowed to cool slowly with stirring until the oil bath temperature reached 40° C. take about 70 min depending on the lab atmosphere. To determine the L-cystine concentration all test compounds were dissolved in water to form 10 mM stock solution. Five uL of each solution was added to 495 uL L-cystine supersaturated solution. The mixtures were allowed to stand at 25° C. for 72 h. At the end of incubation, the mixtures were centrifuged at 13,000 rpm for 5 min and the supernatants were diluted 10-fold for concentration measurement. To construct the standard curves L-Cystine (2.1 mg) was dissolved in 0.1 M Na2CO3 solution (9 mL) to form a 1 mM solution as a stock solution. Then, 50 uL L-cystine stock solution was diluted to 0.6 mM with 0.1 M Na2CO3 ([…]) solution and to 0.4, 0.2, 0.1, 0.05 mM solution using Millipore water 75, 200, 450 and 950 uL, respectively.
Fluorescence Assay for the Determination of L-Cystine Concentration
10 μL of each L-cystine solutions or test compound diluted mixtures, 100 μL of DTT solution (12.5 mM) in 0.1 M dibasic sodium phosphate solution (1:9), were mixed at r.t. for 10 min, before the addition of 10 μL of iodoacetic acid (100 mM) and continued incubation at r.t. for an additional 15 min. This was then followed by the addition of 20 μL of OPA (100 mM in methanol)/NBC (100 mM in methanol) (1:1). The derivatization was allowed to proceed for 3 min before 3×40 μL of the mixture were placed in a 384-well plate and read at Ex 355 nm/Em 460 nm. The standard curve was repeated for each set of experiments and used to calculate the concentration of L-cystine in each sample.
Cyanide-Nitroprusside Colorimetric Assay for the Determination of L-Cystine Concentration
3×40 μL of each L-cystine solutions or test compound diluted mixtures were placed in a 96-well plate (black, clear bottom). 80 μL of aqueous solution of potassium cyanide (30% w/v) in PBS (pH=7.4) (1:7) was added to each well then the plate was left to shake at 550 rpm for 25 min. 10 μL of aqueous solution of sodium nitroprusside (20% w/v) was added to each well using automated dispenser then the plate was centrifuged immediately at 1500 rpm for 20 sec. Then the UV absorbance was measured at 530 nm using Victor 3 V plate reader. The standard curve was repeated for each plate and used to calculate the concentration of L-cystine in each sample.

[2] = in water; cited from earlier work
rats = details: cited from earlier work
cell culture = cell culture experiments; cited from earlier work

SMILES | EC50 [1] | Ratio (improvement in potency over the control) [1] | Concentration at which crystallization of L-cystine is almost completely inhibited [2] | Dosage demonstrating adverse effects (rats) | Concentration causing loss of cell viability (cell culture)
CC1(C)CNCCN1C(=O)[C@@H](N)CSSC[C@H](N)C(=O)N1CCNCC1(C)C [LH1733, L-Cystine bis(2′,2′-dimethylpiperazide) tetrahydrochloride] | 108 ± 3.1 nM | 0.40 | – | – | –
N[C@@H](CSSC[C@H](N)C(=O)N1CCN(C2CC2)CC1)C(=O)N1CCN(C2CC2)CC1 [LH1730, L-Cystine bis(N′-cyclopropylpiperazide) tetrahydrochloride] | 68.8 ± 4.1 nM | 0.62 | – | – | –
COC(=O)[C@@H](N)CSSC[C@H](N)C(=O)OC [CDME, L-cystine dimethylester] | – | – | above 2 mg/L | approximately 500 mg/kg per day | approximately 1 mM
N[C@@H](CSSC[C@H](N)C(=O)N1CCN(c2ccccc2)CC1)C(=O)N1CCN(c2ccccc2)CC1 [LH1732] | 500 ± 26.5 nM | 0.09 | – | – | –
N[C@@H](CSSC[C@H](N)C(=O)NCCCN1CCCC1)C(=O)NCCCN1CCCC1 [LH1740, L-Cystine bis(1′-pyrrolidine-3′-aminopropaneamide) tetrahydrochloride] | 163 ± 12.5 nM | 0.26 | – | – | –
CN1CCN(C(=O)[C@@H](N)CSSC[C@H](N)C(=O)N2CCN(C)CC2)CC1 [LH708, reference compound] | 42.8 ± 0.7 nM | 1.00 | – | – | –
N[C@@H](CSSC[C@H](N)C(=O)NCCN1CCCCC1)C(=O)NCCN1CCCCC1 [LH1737, L-Cystine bis(N′-piperidinoethyleneamide) tetrahydrochloride] | 143 ± 9.8 nM | 0.30 | – | – | –
CN(C)CCCNC(=O)[C@@H](N)CSSC[C@H](N)C(=O)NCCCN(C)C [LH1739, L-Cystine bis (N′,N′-dimethyl-1′,3′-diaminopropaneamide) tetrahydrochloride] | 114 ± 9.4 nM | 0.37 | – | – | –
N[C@@H](CSSC[C@H](N)C(=O)NCCCN1CCOCC1)C(=O)NCCCN1CCOCC1 [LH1741, L-Cystine bis (1′-morpholine-3′-aminopropaneamide) tetrahydrochloride] | 160 ± 10.6 nM | 0.27 | – | – | –
N[C@@H](CSSC[C@H](N)C(=O)N1CCNCC1)C(=O)N1CCNCC1 [LH1726, L-Cystine bispiperazide tetrahydrochloride] | 52.6 ± 0.8 nM | 0.81 | – | – | –
N[C@@H](CSSC[C@H](N)C(=O)NCCN1CCOCC1)C(=O)NCCN1CCOCC1 [LH1738, L-Cystine bis(N′-morpholinoethyleneamide) tetrahydrochloride] | 79.7 ± 7.7 nM | 0.54 | – | – | –

Further molecules by falling EC50 [1], results first:

EC50 [1] | SMILES | Ratio (improvement in potency over the control) [1] | Concentration at which crystallization of L-cystine is almost completely inhibited [2] | Dosage demonstrating adverse effects (rats) | Concentration causing loss of cell viability (cell culture)
163 ± 10.8 nM | CN(C)CCNC(=O)[C@@H](N)CSSC[C@H](N)C(=O)NCCN(C)C [LH1734, L-Cystine bis (N′,N′-dimethylethyleneamide) tetrahydrochloride] | 0.26 | – | – | –
120 ± 13 nM | N[C@@H](CSSC[C@H](N)C(=O)N1CCCC12CCNCC2)C(=O)N1CCCC12CCNCC2 [LH1754, L-Cystine bis(1,8-Diazaspiro[4.5]decan-1-yl) tetrahydrochloride] | 0.36 | – | – | –
116 ± 6.1 nM | N[C@@H](CSSC[C@H](N)C(=O)NCCN1CCCC1)C(=O)NCCN1CCCC1 [LH1735, L-Cystine bis(N′-pyrrolidinoethyleneamide) tetrahydrochloride] | 0.37 | – | – | –
51.2 ± 3.7 nM | CN(C)C1CCN(C(=O)[C@@H](N)CSSC[C@H](N)C(=O)N2CCC(N(C)C)CC2)CC1 [LH1751, L-Cystine bis(4′-(dimethylamino)-piperidineamide) tetrahydrochloride] | 0.84 | – | – | –
39.5 ± 1.3 nM | N[C@@H](CSSC[C@H](N)C(=O)N1CCN(C2CCCC2)CC1)C(=O)N1CCN(C2CCCC2)CC1 [LH1731, L-Cystine bis(N′-cyclopentylpiperazide) tetrahydrochloride] | 1.08 | – | – | –
36.5 ± 1.6 nM | N[C@@H](CSSC[C@H](N)C(=O)N1CCC(N2CCCC2)CC1)C(=O)N1CCC(N2CCCC2)CC1 [LH1752, L-Cystine bis(4′-(1″-Pyrrolidinyl)piperidine) tetrahydrochloride] | 1.17 | – | – | –
32 ± 2.5 nM | CC(C)(C)N1CCN(C(=O)[C@@H](N)CSSC[C@H](N)C(=O)N2CCN(C(C)(C)C)CC2)CC1 [LH1729, L-Cystine bis(N′-tert-butylpiperazide) tetrahydrochloride] | 1.34 | – | – | –
25.1 ± 2.4 nM | N[C@@H](CSSC[C@H](N)C(=O)N1CCC2(CCCN2)CC1)C(=O)N1CCC2(CCCN2)CC1 [LH1753, L-Cystine bis(1,8-Diazaspiro[4.5]decan-8-yl) tetrahydrochloride] | 1.70 | – | – | –
